Source: patent publication US20120076766A1, “Topical drug delivery system with dual carriers” (priority 2010, published 2012)

What was measured:
[1] = test system: HL-60 cells; settings: cited from earlier work
[2] = test system: MRSA; assay: Study III: human field study, diabetic foot lesion with cellulitus; format: in vivo; settings: IV, for MRSA, 8 days following admission
Method: In this embodiment, the additional ingredient to hasten a third therapeutic tissue healing effect was added. This embodiment used vitamin D in a small but medically efficacious amount.

C[S+](C)[O-] [DMSO, dimethyl sulfoxide]
amount at which results (desired cellular responses) occurred [1]: less than 2%

CN[C@H](CC(C)C)C(=O)N[C@H]1C(=O)N[C@@H](CC(N)=O)C(=O)N[C@H]2C(=O)N[C@H]3C(=O)N[C@H](C(=O)N[C@H](C(=O)O)c4cc(O)cc(O)c4-c4cc3ccc4O)[C@H](O)c3ccc(c(Cl)c3)Oc3cc2cc(c3O[C@@H]2O[C@H](CO)[C@@H](O)[C@H](O)[C@H]2O[C@H]2C[C@](C)(N)[C@H](O)[C@H](C)O2)Oc2ccc(cc2Cl)[C@H]1O [vancomycin, Vancomycin]
patient response to treatment [2]: did not respond

vitamin D
amount at which results (desired cellular responses) occurred [1]: about 100 nM
subsequent retinoid-induced TGM2 expression ([1]; priming of the cells by pretreatment): increases
